We go through four compounds from patent publication US9414587B2, “Solubilized magnolol analogs” (Cologne-Palmolive Company, priority 2011, dated 2016).

The format of the data set is physicochemical. From the text:
Each of the sorbitan esters is capable of solubilizing up to 100 g per liter of neat propyl magnolol or butyl magnolol. In certain embodiments, the amount of sorbitan ester is at least 10 times the weight of the propyl magnolol or butyl magnolol in the composition.
Polysorbate 80 is capable of solubilizing up to 50 g per liter of neat isopropyl magnolol or isobutyl magnolol. In certain embodiments, the amount of polysorbate 80 is at least 20 times the weight of the isopropyl magnolol or isobutyl magnolol in the composition. It was surprising that polysorbate 80 was able to solubilize these analogs. Isobutyl magnolol is not soluble in polysorbate 20, polysorbate 40, or polysorbate 85.
Polysorbate 20 is capable of solubilizing up to 100 g per liter of neat isopropyl magnolol. In certain embodiments, the amount of polysorbate 20 is at least 10 times the weight of the isopropyl magnolol in the composition. It was surprising that polysorbate 20 was able to solubilize these analogs. Isopropyl magnolol is only soluble up to 10 g per liter in polysorbate 40 or polysorbate 85.
It was surprising that these sorbitan esters were capable of solubilizing these analogs.

Structures are written as SMILES.

Turning to `CCCCc1ccc(O)c(-c2cc(CCCC)ccc2O)c1` [butyl magnolol, 5,5′-di-n-butylbiphenyl-2,2′-diol], the “amount of neat analog that the sorbitan ester is capable of solubilizing” value is “up to 100 g per liter”.

For `CC(C)Cc1ccc(O)c(-c2cc(CC(C)C)ccc2O)c1` [isobutyl magnolol, 5,5′-di-isobutylbiphenyl-2,2′-diol], the “amount of neat analog that polysorbate 80 is capable of solubilizing” value was “up to 50 g per liter”, the “solubility in polysorbate 20 (in words)” value was “not soluble” and the “solubility in polysorbate 40 (in words)” value is reported as “not soluble”.

In the case of `CC(C)c1ccc(O)c(-c2cc(C(C)C)ccc2O)c1` [isopropyl magnolol, 5,5′-di-isopropylbiphenyl-2,2′-diol], the “amount of neat analog that polysorbate 20 is capable of solubilizing” value is reported as “up to 100 g per liter”, the “amount of neat analog that polysorbate 80 is capable of solubilizing” value was “up to 50 g per liter”, the “solubility in polysorbate 40” value is on record as “up to 10 g per liter” and the “solubility in polysorbate 85” value is “up to 10 g per liter”.

For `CCCc1ccc(O)c(-c2cc(CCC)ccc2O)c1` [propyl magnolol, 5,5′-di-n-propylbiphenyl-2,2′-diol], the “amount of neat analog that the sorbitan ester is capable of solubilizing” value is recorded as “up to 100 g per liter”.
